Literature values as cited in patent US9272049B2, “Methods of stimulating fat mobilization using a polymer conjugated polyphenol” (NANOPHARMACEUTICALS LLC, priority 2005, dated 2016).

Key:
[1] = system: insulin-sensitive mammalian cell lines; details: several insulin-sensitive mammalian cell lines

## Oc1ccc(C=Cc2cc(O)cc(O)c2)cc1 [Resveratrol]
[1]
  fat accumulation: reduce fat accumulation
C. elegans
  fat accumulation: reduce fat accumulation
